Test results published in patent publication US9090605B2, “Substituted 5-,6- and 7-membered heterocycles, medicaments containing such compounds, and their use” (Vitae Pharmaceuticals, Inc., priority 2010, dated 2015).

Target: 11β-HSD1 (Homo sapiens, UniProt P28845)
Assay: Inhibition of a microsomal preparation of 11β-HSD1, scintillation proximity assay, microsomes from CHO cells overexpressing human 11β-HSD1 (biological test example 2)
Assay type: biochemical
Parameters: expressed in transfected cells; host or cells: CHO cells (microsomes isolated from them)
Conditions: microsomes from CHO cells overexpressing human 11β-HSD1, SPA, [3H]cortisone, 90 minutes at room temperature; read-out: IC50, inhibitory activity on 11β-HSD 1
Procedure: All reactions were carried out at room temperature in 96 well clear flexible PET Microbeta plates (PerkinElmer). The assay begins by dispensing 49 μl of substrate solution [50 mM HEPES, pH 7.4, 100 mM KCl, 5 mM NaCl, 2 mM MgCl2, 2 mM NADPH and 160 nM [^3H]cortisone (1 Ci/mmol)] and mixing in 1 μL of the test compounds in dimethyl sulfoxide previously diluted in half-log increments (8 points) starting at 0.1 mM. After a 10 minute pre-incubation, 50 μL of enzyme solution containing microsomes isolated from CHO cells overexpressing human 11β-HSD1 (10-20 μg/ml of total protein) was added, and the plates were incubated for 90 minutes at room temperature. The reaction was stopped by adding 50 μl of the SPA beads suspension containing 10 μM 18β-glycyrrhetinic acid, 5 mg/ml protein A coated YSi SPA beads (GE Healthcare) and 3.3 μg/ml of anti-cortisol antibody (East Coast Biologics) in Superblock buffer (Bio-Rad). The plates were shaken for 120 minutes at room temperature, and the SPA signal corresponding to [^3H]cortisol was measured on a Microbeta plate reader.

11β-HSD1, sequence (P28845 whole entry): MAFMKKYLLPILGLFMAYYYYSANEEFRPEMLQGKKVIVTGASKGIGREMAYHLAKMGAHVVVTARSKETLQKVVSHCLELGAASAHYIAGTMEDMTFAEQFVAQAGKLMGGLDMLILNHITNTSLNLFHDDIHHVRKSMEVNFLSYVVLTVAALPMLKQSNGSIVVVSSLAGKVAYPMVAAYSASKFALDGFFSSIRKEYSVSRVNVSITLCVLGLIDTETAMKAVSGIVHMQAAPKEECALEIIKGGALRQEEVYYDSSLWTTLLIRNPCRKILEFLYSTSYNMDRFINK

Compound | IC50 [nM]
C[C@@H](c1ccc(-c2ccc(C3(C(N)=O)CC3)nc2)cc1)N1CC[C@@](CC2CC2)(CC(C)(C)O)OC1=O [Example 59, 1-[5-(4-{(S)-1-[(S)-6-Cyclopropylmethyl-6-(2-hydroxy-2-methyl-propyl)-2-oxo-[1,3]oxazinan-3-yl]-ethyl}-phenyl)-pyridin-2-yl]-cyclopropanecarboxylic acid amide] | 6.5
C[C@@H](c1ccc(-c2cnc(N3CCNC3=O)nc2)cc1)N1CC[C@](CC(C)(C)O)(c2ccccc2)OC1=O [Example 28, (S)-6-(2-hydroxy-2-methylpropyl)-3-((S)-1-{4-[2-(2-oxoimidazolidin-1-yl)pyrimidin-5-yl]phenyl}ethyl)-6-phenyl-1,3-oxazinan-2-one] | 8.4
C[C@@H](c1ccc(-c2ccn(C3CNC3)c(=O)c2)cc1)N1CC[C@](CC(C)(C)O)(c2ccccc2)OC1=O [Example 27, 3-((S)-1-{4-[1-(azetidin-3-yl)-2-oxo-1,2-dihydropyridin-4-yl]phenyl}ethyl)-(S)-6-(2-hydroxy-2-methylpropyl)-6-phenyl-1,3-oxazinan-2-one] | 27.4
C[C@@H](c1ccc(-c2ccn(C3COC3)c(=O)c2)cc1)N1CC[C@](CC(C)(C)O)(c2ccccc2)OC1=O [Example 26, (S)-6-(2-hydroxy-2-methylpropyl)-3-((S)-1-{4-[1-(oxetan-3-yl)-2-oxo-1,2-dihydropyridin-4-yl]phenyl}ethyl)-6-phenyl-1,3-oxazinan-2-one] | 5.2
C[C@@H](c1ccc(-c2cccc(N3CCCCC3=O)n2)cc1)N1CC[C@](CC(C)(C)O)(c2ccccc2)OC1=O [Example 39, (S)-6-(2-hydroxy-2-methylpropyl)-3-((S)-1-{4-[6-(2-oxopiperidin-1-yl)pyridin-2-yl]phenyl}ethyl)-6-phenyl-1,3-oxazinan-2-one] | 3.7
C[C@@H](c1ccc(-c2ccc(=O)n(C3COC3)c2)cc1)N1CC[C@](CC(C)(C)O)(c2ccccc2)OC1=O [Example 58, (S)-6-(2-Hydroxy-2-methyl-propyl)-3-{(S)-1-[4-(1-oxetan-3-yl-6-oxo-1,6-dihydro-pyridin-3-yl)-phenyl]-ethyl}-6-phenyl-[1,3]oxazinan-2-one] | 4.3

Stronger by IC50, values ahead:

IC50 [nM] | Compound
3.2 | C[C@@H](c1ccc(-c2cnc(N3CCCC3=O)nc2)cc1)N1CC[C@](CC(C)(C)O)(c2ccccc2)OC1=O [Example 30, (S)-6-(2-hydroxy-2-methylpropyl)-3-((S)-1-{4-[2-(2-oxopyrrolidin-1-yl)pyrimidin-5-yl)phenyl]ethyl}-6-phenyl-1,3-oxazinan-2-one]
2.8 | C[C@@H](c1ccc(-c2cnc(N3CC(O)C3)nc2)cc1)N1CC[C@](CC(C)(C)O)(c2ccccc2)OC1=O [Example 35, (S)-6-(2-hydroxy-2-methylpropyl)-3-((S)-1-{4-[2-(3-hydroxyazetidin-1-yl)pyrimidin-5-yl]phenyl}ethyl)-6-phenyl-1,3-oxazinan-2-one]
1.1 | C[C@@H](c1ccc(-c2cccc(N3CCOCC3)n2)cc1)N1CC[C@](CC(C)(C)O)(c2ccccc2)OC1=O [Example 40, (S)-6-(2-hydroxy-2-methylpropyl)-3-{(S)-1-[4-(6-morpholinopyridin-2-yl)phenyl]ethyl}-6-phenyl-1,3-oxazinan-2-one]
1 | C[C@@H](c1ccc(-c2cnc(N3CCC3)nc2)cc1)N1CC[C@](CC(C)(C)O)(c2ccccc2)OC1=O [Example 34, 3-((S)-1-{4-[2-(azetidin-1-yl)pyrimidin-5-yl)phenyl]ethyl}-(S)-6-(2-hydroxy-2-methylpropyl)-6-phenyl-1,3-oxazinan-2-one]
0.9 | C[C@@H](c1ccc(-c2ccc(N3CCC3)nn2)cc1)N1CC[C@](CC(C)(C)O)(c2ccccc2)OC1=O [Example 31, 3-((S)-1-{4-[6-(azetidin-1-yl)pyridazin-3-yl]phenyl}ethyl)-(S)-6-(2-hydroxy-2-methylpropyl)-6-phenyl-1,3-oxazinan-2-one]
0.8 | C[C@@H](c1ccc(-c2cnc(-n3ccccc3=O)s2)cc1)N1CC[C@](CC(C)(C)O)(c2ccccc2)OC1=O [Example 36, (S)-6-(2-hydroxy-2-methylpropyl)-3-((S)-1-{4-[2-(2-oxopyridin-1 (2H)-yl)thiazol-5-yl]phenyl}ethyl)-6-phenyl-1,3-oxazinan-2-one]
